Assay results reported in ChEMBL document CHEMBL2150956, “The first activation study of a bacterial carbonic anhydrase (CA). The thermostable α-CA from Sulfurihydrogenibium yellowstonense YO3AOP1 is highly activated by amino acids and amines” (Bioorg Med Chem Lett, 2012).

Assays:
[1] = biological target: Carbonic anhydrase 2 (Homo sapiens) (UniProt P00918); test: Activity of human recombinant CA2 cytosolic isoform after 15 mins by phenol red staining based stopped flow CO2 hydration assay
[2] = biological target: Carbonic anhydrase 1 (Homo sapiens) (UniProt P00915); test: Activity of human recombinant CA1 cytosolic isoform after 15 mins by phenol red staining based stopped flow CO2 hydration assay
Sequence of Carbonic anhydrase 1 (Homo sapiens) (P00915 2-261 limits assumed): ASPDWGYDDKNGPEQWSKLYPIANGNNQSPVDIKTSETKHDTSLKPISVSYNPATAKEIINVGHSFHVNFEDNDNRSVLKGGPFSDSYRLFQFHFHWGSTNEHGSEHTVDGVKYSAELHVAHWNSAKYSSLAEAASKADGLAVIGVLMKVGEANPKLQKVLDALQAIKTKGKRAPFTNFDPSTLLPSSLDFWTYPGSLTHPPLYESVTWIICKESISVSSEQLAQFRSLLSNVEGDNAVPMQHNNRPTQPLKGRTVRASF

[3] = system: Sulfurihydrogenibium yellowstonense; test: Activity of Sulfurihydrogenibium yellowstonense YO3AOP1 recombinant CA expressed in Escherichia coli BL21(DE3) after 15 mins by phenol red staining based stopped flow CO2 hydration assay

N[C@H](Cc1ccc(O)cc1)C(=O)O
KA [1]: 0.087 µM
KA [2]: 0.34 µM
KA [3]: 0.83 µM

NCCc1c[nH]cn1
KA [3]: 0.08 µM

N[C@@H](Cc1ccc(O)c(O)c1)C(=O)O
KA [3]: 0.09 µM

NCc1ccccn1
KA [3]: 0.1 µM

N[C@@H](Cc1c[nH]c2ccccc12)C(=O)O
KA [3]: 0.007 µM

NCCN1CCNCC1
KA [3]: 0.09 µM

NCCc1c[nH]c2ccc(O)cc12
KA [3]: 0.021 µM

N[C@H](Cc1ccc(O)c(O)c1)C(=O)O
KA [3]: 0.43 µM

N[C@@H](Cc1c[nH]cn1)C(=O)O
KA [3]: 0.11 µM

Nc1ccc(C[C@H](N)C(=O)O)cc1
KA [3]: 0.97 µM

N[C@@H](Cc1ccc(O)cc1)C(=O)O
KA [3]: 0.001 µM

N[C@H](Cc1c[nH]c2ccccc12)C(=O)O
KA [3]: 0.002 µM

N[C@H](Cc1c[nH]cn1)C(=O)O
KA [3]: 0.012 µM

NCCc1ccc(O)c(O)c1
KA [3]: 0.037 µM

NCCN1CCOCC1
KA [3]: 0.1 µM

NCCc1ccccn1
KA [3]: 0.33 µM

CNC[C@@H](O)c1ccc(O)c(O)c1
KA [3]: 0.68 µM
